Results: patent US20260138976A1 (Hoffmann-La Roche Inc., priority 2022, published 2026)

Columns and labels:
[1] = molecular target: T1, DGKζ (hDGKzeta(1-928)-N-His) (Homo sapiens, UniProt Q13574); assay: In vitro DGK inhibition assay, DGKzeta ADP Glo (in house); assay type: biochemical; conditions: 2 nM DGKζ, 50 μM ATP, 125 uM DLG in liposomes, 1 hour reaction
T1 construct: hDGKzeta(1-928)-N-His; His (N); made in house; host or cells: Sf21 insect cells (baculovirus)
How it was run: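 ADP-Glo luminescence measured ADP formed over 1 h by Sf21-expressed full-length human enzymes: DGKα at 4 nM with 25 µM ATP, DGKζ at 2 nM with 50 µM ATP, both on 125 µM DLG in PS/PC liposomes. Dose–response used 11 threefold dilutions at 2% final DMSO.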

DGK ζ kinase = molecular target: T2, DGK ζ kinase (Homo sapiens, UniProt Q13574); assay: DGKzeta kinase ADP Glo assay run by Reaction Biology Corp.; assay type: biochemical; conditions: 2 nM kinase, 50 µM ATP, 500 μM DLG, 10-dose duplicate
T2 construct: purchased Reaction Biology Corp. (contract assay service)
Experimental: DGK α and ζ kinases use ATP to phosphorylate the substrate 1,2-dilauroyl-sn-glycerol (DLG). ATP is converted to ADP as a result of this enzymatic reaction.
After the kinase reaction, an ATP-depletion reagent is added to terminate the kinase reaction and deplete any remaining ATP, leaving only ADP. Second, a detection reagent is added to simultaneously convert ADP to ATP and allow the newly synthesized ATP to be converted to light using a coupled luciferase/luciferin reaction.
DGK α and ζ kinase ADP Glo assays were ran by Reaction Biology Corp., 1 Great Valley Parkway, Suite 2, Malvern, 19355, PA, USA. Information provided by the service provider are the following: DGK α and ζ kinases were used at 2 nM final concentration. Reactions were carried out at 50 µM ATP. 500 μM of the substrate DLG (Dilauroyl-sn-glycerol) was used.

primary human T-cells = assay: IL2 secretion measurements (24 h, CD3-stimulated T-cells, PBS counter screen); assay type: cell-based; conditions: for Emax IL2 (% activation): CD3 condition, normalised to DMSO (neutral) and 20 μM reference compound A1 = 100%; for EC50: Homo sapiens, T-cell, CD3-stimulated primary human T-cells, IL2 secretion, fitted sigmoidal curve, read-out: Tcell IL2 CD3 EC50
How it was run: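 IL-2 secretion was measured by ProQuantum or ELISA after 24 h culture of expanded human T-cells with compound, on CD3-antibody-coated plates or PBS counter-screen plates. Dosing used 5–6 points from a 20 or 10 μM final top at 3.333-fold steps in 0.2% DMSO. EC50/Emax were scaled between DMSO and 20 μM reference A1.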

T1 sequence (Q13574 whole entry): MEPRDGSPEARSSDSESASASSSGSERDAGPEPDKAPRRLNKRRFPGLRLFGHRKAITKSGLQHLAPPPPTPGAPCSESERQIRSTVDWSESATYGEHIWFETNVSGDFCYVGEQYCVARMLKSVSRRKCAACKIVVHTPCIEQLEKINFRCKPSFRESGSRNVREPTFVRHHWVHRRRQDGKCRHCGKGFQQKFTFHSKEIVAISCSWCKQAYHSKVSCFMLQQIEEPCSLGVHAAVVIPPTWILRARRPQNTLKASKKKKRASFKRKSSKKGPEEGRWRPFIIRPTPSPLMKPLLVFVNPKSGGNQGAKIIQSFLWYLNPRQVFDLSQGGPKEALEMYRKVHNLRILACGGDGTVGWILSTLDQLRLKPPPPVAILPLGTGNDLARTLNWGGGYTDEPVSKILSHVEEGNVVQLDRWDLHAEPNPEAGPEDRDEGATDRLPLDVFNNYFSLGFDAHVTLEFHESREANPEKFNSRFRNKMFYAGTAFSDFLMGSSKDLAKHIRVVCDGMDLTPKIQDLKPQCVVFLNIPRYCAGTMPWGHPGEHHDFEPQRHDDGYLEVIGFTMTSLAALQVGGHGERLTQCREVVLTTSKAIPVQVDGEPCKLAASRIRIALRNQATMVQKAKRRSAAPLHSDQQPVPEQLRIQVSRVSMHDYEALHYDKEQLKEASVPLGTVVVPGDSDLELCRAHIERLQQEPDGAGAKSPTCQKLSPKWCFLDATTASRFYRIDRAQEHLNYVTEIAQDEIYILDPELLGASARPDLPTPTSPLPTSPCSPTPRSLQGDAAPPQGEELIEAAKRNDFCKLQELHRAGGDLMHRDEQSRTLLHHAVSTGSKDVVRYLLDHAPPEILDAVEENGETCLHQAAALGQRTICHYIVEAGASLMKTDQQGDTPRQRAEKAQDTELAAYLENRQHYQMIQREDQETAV
T2 sequence (Q13574 whole entry): as above

Structure (SMILES) | IC50 [1] [nM] | IC50 (DGK ζ kinase) [nM] | Emax IL2 (% activation) (primary human T-cells) | EC50 (primary human T-cells) [nM]
CC(C)(C#N)c1nnc(-c2ccc3c(c2)N(Cc2ccc(-c4ccc(C(F)(F)F)cn4)cc2)C(=O)[C@@H](N)CS3(=O)=O)o1 [Example 47] | 842 | 71.3 | 163 | 670
C[C@@](N)(c1nnc(-c2ccc3c(c2)N(Cc2ccc(-c4noc(C(F)(F)F)n4)cc2)C(=O)[C@@H](N)CS3(=O)=O)o1)C(F)(F)F [Example 52, (3R)-3-amino-7-[5-[(1R)-1-amino-2,2,2-trifluoro-1-methyl-ethyl]-1,3,4-oxadiazol-2-yl]-1,1-dioxo-5-[[4-[5-(trifluoromethyl)-1,2,4-oxadiazol-3-yl]phenyl]methyl]-2,3-dihydro-1λ^6,5-benzothiazepin-4-one] | 2320 | 101 | 164 | 645
C[C@](N)(c1nnc(-c2ccc3c(c2)N(Cc2ccc(-c4noc(C(F)(F)F)n4)cc2)C(=O)[C@@H](N)CS3(=O)=O)o1)C(F)(F)F [Example 53, (3R)-3-amino-7-[5-[(1S)-1-amino-2,2,2-trifluoro-1-methyl-ethyl]-1,3,4-oxadiazol-2-yl]-1,1-dioxo-5-[[4-[5-(trifluoromethyl)-1,2,4-oxadiazol-3-yl]phenyl]methyl]-2,3-dihydro-1λ^6,5-benzothiazepin-4-one] | 2420 | 92.8 | 187 | 2070
COc1ccc(-c2ccc(CN3C(=O)[C@@H](N)CS(=O)(=O)c4ccc(-c5nnc(N(C)CC(F)(F)F)o5)cc43)cc2)cc1 [Example 81, (3R)-3-amino-5-[[4-(4-methoxyphenyl)phenyl]methyl]-7-[5-[methyl(2,2,2-trifluoroethyl)amino]-1,3,4-oxadiazol-2-yl]-1,1-dioxo-2,3-dihydro-1λ^6,5-benzothiazepin-4-one] | 2450 | 53.5 | 66 | 523
CC(C)(C#N)c1nnc(-c2ccc3c(c2)N(Cc2ccc(-c4ccc(OC(F)(F)F)cn4)cc2)C(=O)[C@@H](N)CS3(=O)=O)o1 [Example 124] | 801 | 56.7 | 154 | 278
N[C@H]1CS(=O)(=O)c2ccc(-c3nnc(N4CCC(F)(F)CC4)o3)cc2N(Cc2ccc(-c3nc(C(F)(F)F)no3)cc2)C1=O [Example 161, (3R)-3-amino-7-[5-(4,4-difluoro-1-piperidyl)-1,3,4-oxadiazol-2-yl]-1,1-dioxo-5-[[4-[3-(trifluoromethyl)-1,2,4-oxadiazol-5-yl]phenyl]methyl]-2,3-dihydro-1λ^6,5-benzothiazepin-4-one] | 1920 |  | 150 | 3210
N#CC1CN(c2nnc(-c3ccc4c(c3)N(Cc3ccc(-c5noc(C(F)(F)F)n5)cc3)C(=O)[C@@H](N)CS4(=O)=O)o2)CCO1 (stereo partly drawn) [Example 163, 4-[5-[(3R)-3-amino-1,1,4-trioxo-5-[[4-[5-(trifluoromethyl)-1,2,4-oxadiazol-3-yl]phenyl]methyl]-2,3-dihydro-1λ^6,5-benzothiazepin-7-yl]-1,3,4-oxadiazol-2-yl]morpholine-2-carbonitrile] | 10600 |  | 152 | 2390
COCC1CN(c2nnc(-c3ccc4c(c3)N(Cc3ccc(-c5noc(C(F)(F)F)n5)cc3)C(=O)[C@@H](N)CS4(=O)=O)o2)CCO1 (stereo partly drawn) [Example 164, (3R)-3-amino-7-[5-[2-(methoxymethyl)morpholin-4-yl]-1,3,4-oxadiazol-2-yl]-1,1-dioxo-5-[[4-[5-(trifluoromethyl)-1,2,4-oxadiazol-3-yl]phenyl]methyl]-2,3-dihydro-1λ^6,5-benzothiazepin-4-one] | 2030 |  | 156 | 3300
CC(C)(c1nnc(-c2ccc3c(c2)N(Cc2ccc(-c4noc(C(F)(F)F)n4)cc2)C(=O)[C@@H](N)CS3(=O)=O)o1)C(F)(F)F [Example 166] | 1720 |  | 385 | 158

Continued, in another order:

IC50 [1] [nM] | IC50 (DGK ζ kinase) [nM] | Structure (SMILES) | Emax IL2 (% activation) (primary human T-cells) | EC50 (primary human T-cells) [nM]
1240 | 439 | Cc1noc(-c2ccc(CN3C(=O)[C@@H](N)CS(=O)(=O)c4ccc(-c5nnc(C(C)(C)C)o5)cc43)cc2)n1 [Example 20, (3R)-3-amino-7-(5-tert-butyl-1,3,4-oxadiazol-2-yl)-5-[[4-(3-methyl-1,2,4-oxadiazol-5-yl)phenyl]methyl]-1,1-dioxo-2,3-dihydro-1λ^6,5-benzothiazepin-4-one] | 82 | 7630
2530 | 25.4 | N[C@H]1CS(=O)(=O)c2ccc(-c3nnc(N4CCOC(F)(F)C4)o3)cc2N(Cc2ccc(-c3noc(C(F)(F)F)n3)cc2)C1=O [Example 78, (3R)-3-amino-7-[5-(2,2-difluoromorpholin-4-yl)-1,3,4-oxadiazol-2-yl]-1,1-dioxo-5-[[4-[5-(trifluoromethyl)-1,2,4-oxadiazol-3-yl]phenyl]methyl]-2,3-dihydro-1λ^6,5-benzothiazepin-4-one] | 216 | 2340
924 |  | CC(C)(c1nnc(-c2ccc3c(c2)N(Cc2ccc(-c4noc(C5CC5)n4)cc2)C(=O)[C@@H](N)CS3(=O)=O)o1)C(F)(F)F [Example 167, (3R)-3-amino-5-[[4-(5-cyclopropyl-1,2,4-oxadiazol-3-yl)phenyl]methyl]-1,1-dioxo-7-[5-(2,2,2-trifluoro-1,1-dimethyl-ethyl)-1,3,4-oxadiazol-2-yl]-2,3-dihydro-1λ^6,5-benzothiazepin-4-one] | 279 | 635
1770 |  | CCC(O)(c1nnc(-c2ccc3c(c2)N(Cc2ccc(-c4noc(C5CC5)n4)cc2)C(=O)[C@@H](N)CS3(=O)=O)o1)C(F)(F)F (stereo partly shown) [Example 169] | 128 | 3170
200 |  | CCN1CC(c2nnc(-c3ccc4c(c3)N(Cc3ccc(-c5noc(C(C)(C)C)n5)cc3)C(=O)[C@@H](N)CS4(=O)=O)o2)CC(F)(F)C1 (stereo partly drawn) [Example 181, (3R)-3-amino-5-[[4-(5-tert-butyl-1,2,4-oxadiazol-3-yl)phenyl]methyl]-7-[5-(1-ethyl-5,5-difluoro-3-piperidyl)-1,3,4-oxadiazol-2-yl]-1,1-dioxo-2,3-dihydro-1λ^6,5-benzothiazepin-4-one] | 66 | 6890
2000 |  | COCCN1CC(c2nnc(-c3ccc4c(c3)N(Cc3ccc(-c5noc(C(F)(F)F)n5)cc3)C(=O)[C@@H](N)CS4(=O)=O)o2)CC(F)(F)C1 (stereo partly drawn) [Example 182, (3R)-3-amino-7-[5-[5,5-difluoro-1-(2-methoxyethyl)-3-piperidyl]-1,3,4-oxadiazol-2-yl]-1,1-dioxo-5-[[4-[5-(trifluoromethyl)-1,2,4-oxadiazol-3-yl]phenyl]methyl]-2,3-dihydro-1λ^6,5-benzothiazepin-4-one] | 149 | 3260
970 |  | COCCN1CC(c2nnc(-c3ccc4c(c3)N(Cc3ccc(-c5ccc(OC)cc5)cc3)C(=O)[C@@H](N)CS4(=O)=O)o2)CC(F)(F)C1 (stereo partly drawn) [Example 183, (3R)-3-amino-7-[5-[5,5-difluoro-1-(2-methoxyethyl)-3-piperidyl]-1,3,4-oxadiazol-2-yl]-5-[[4-(4-methoxyphenyl)phenyl]methyl]-1,1-dioxo-2,3-dihydro-1λ^6,5-benzothiazepin-4-one] | 69 | 6440
